Results reported in the supplement of paper PMC10307832.

Tests used:
Test in all cases: relative viability (nuclei count vs DMSO), 5 days (fraction); higher = more cells survive
[1] = compound: CO[C@H]1C[C@@H]2CC[C@@H](C)[C@@](O)(O2)C(=O)C(=O)N2CCCC[C@H]2C(=O)O[C@H]([C@H](C)C[C@@H]2CC[C@@H](OCCO)[C@H](OC)C2)CC(=O)[C@H](C)/C=C(\C)[C@@H](O)[C@@H](OC)C(=O)[C@H](C)C[C@H](C)/C=C/C=C/C=C/1C [Everolimus] + CC(=O)c1c(C)c2cnc(Nc3ccc(N4CCNCC4)cn3)nc2n(C2CCCC2)c1=O [Palbociclib] (partner 0.5 µM)
Summary of the method: (§1)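 Each reported value is a median over duplicate plates. It expresses relative viability: treated-well nuclei count divided by vehicle-well nuclei count. Lung cancer cell lines in 1536-well plates were dosed by pin tool a day after seeding, alone with one drug or with a fixed anchor-drug dose plus five library-drug doses (not always all listed) in √10 steps, and nuclei were counted after 5 days.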

[2] = compound: CO[C@H]1C[C@@H]2CC[C@@H](C)[C@@](O)(O2)C(=O)C(=O)N2CCCC[C@H]2C(=O)O[C@H]([C@H](C)C[C@@H]2CC[C@@H](OCCO)[C@H](OC)C2)CC(=O)[C@H](C)/C=C(\C)[C@@H](O)[C@@H](OC)C(=O)[C@H](C)C[C@H](C)/C=C/C=C/C=C/1C [Everolimus] + CS(=O)(=O)N1CCN(Cc2cc3nc(-c4cccc5[nH]ncc45)nc(N4CCOCC4)c3s2)CC1 [Pictilisib] (partner 1 µM)
Summary of the method: as §1

[3] = compound: CO[C@H]1C[C@@H]2CC[C@@H](C)[C@@](O)(O2)C(=O)C(=O)N2CCCC[C@H]2C(=O)O[C@H]([C@H](C)C[C@@H]2CC[C@@H](OCCO)[C@H](OC)C2)CC(=O)[C@H](C)/C=C(\C)[C@@H](O)[C@@H](OC)C(=O)[C@H](C)C[C@H](C)/C=C/C=C/C=C/1C [Everolimus] + N=C(N)NC(=N)NCCc1ccccc1 [Phenformin] (partner 250 µM)
Summary of the method: as §1

[4] = compound: CO[C@H]1C[C@@H]2CC[C@@H](C)[C@@](O)(O2)C(=O)C(=O)N2CCCC[C@H]2C(=O)O[C@H]([C@H](C)C[C@@H]2CC[C@@H](OCCO)[C@H](OC)C2)CC(=O)[C@H](C)/C=C(\C)[C@@H](O)[C@@H](OC)C(=O)[C@H](C)C[C@H](C)/C=C/C=C/C=C/1C [Everolimus] + Nc1ncn([C@H]2C[C@H](O)[C@@H](CO)O2)c(=O)n1 [Decitabine] (partner 2 µM)
Summary of the method: as §1

Cell Line | relative viability ([1]; first compound 0.01 µM) | relative viability ([1]; first compound 0.03162 µM) | relative viability ([1]; first compound 0.1 µM) | relative viability ([1]; first compound 0.3162 µM) | relative viability ([1]; first compound 1 µM) | relative viability ([2]; first compound 0.01 µM) | relative viability ([2]; first compound 0.03162 µM) | relative viability ([2]; first compound 0.1 µM) | relative viability ([2]; first compound 0.3162 µM) | relative viability ([2]; first compound 1 µM) | relative viability ([3]; first compound 0.01 µM) | relative viability ([3]; first compound 0.03162 µM) | relative viability ([3]; first compound 0.1 µM) | relative viability ([3]; first compound 0.3162 µM) | relative viability ([3]; first compound 1 µM) | relative viability ([4]; first compound 0.01 µM) | relative viability ([4]; first compound 0.03162 µM) | relative viability ([4]; first compound 0.1 µM) | relative viability ([4]; first compound 0.3162 µM) | relative viability ([4]; first compound 1 µM)
H3255 | 0.314 | 0.294 | 0.319 | 0.322 | 0.307 | 0.35 | 0.332 | 0.302 | 0.294 | 0.281 | 0.332 | 0.271 | 0.354 | 0.363 | 0.288 | 0.409 | 0.433 | 0.322 | 0.371 | 0.315
EPLC-272H | 0.307 | 0.323 | 0.284 | 0.286 | 0.259 | 0.274 | 0.295 | 0.188 | 0.211 | 0.262 | 0.281 | 0.259 | 0.236 | 0.245 | 0.268 | 0.312 | 0.291 | 0.259 | 0.306 | 0.327
PC-3 [JPC-3] | 0.579 | 0.497 | 0.548 | – | 0.545 | 0.581 | 0.585 | 0.516 | 0.622 | 0.53 | 0.454 | 0.461 | 0.408 | 0.461 | 0.463 | 0.813 | 0.794 | 0.687 | – | 0.802
NCI-H1793 | 0.219 | 0.19 | 0.246 | 0.214 | 0.166 | 0.225 | 0.222 | 0.141 | 0.237 | 0.19 | 0.294 | 0.242 | 0.329 | 0.313 | 0.29 | 0.283 | 0.262 | 0.339 | 0.344 | 0.263
EKVX | – | 0.217 | 0.188 | 0.2 | 0.237 | 0.251 | 0.24 | 0.234 | 0.245 | 0.22 | 0.242 | 0.22 | 0.22 | 0.222 | 0.25 | – | 0.245 | 0.226 | 0.226 | 0.371
ChaGo-K-1 | 0.798 | 0.806 | 0.802 | 0.768 | 0.914 | 0.653 | 0.382 | 0.634 | 0.494 | 0.666 | 0.532 | 0.467 | 0.394 | 0.536 | 0.568 | 0.5 | 0.478 | 0.461 | 0.419 | 0.458
NCI-H23 | 0.261 | 0.272 | 0.317 | 0.232 | 0.252 | 0.334 | 0.268 | 0.216 | 0.312 | 0.344 | 0.641 | 0.607 | 0.508 | 0.593 | 0.496 | 0.264 | 0.283 | 0.257 | 0.259 | 0.254
EMC-BAC-2 | 0.414 | 0.376 | 0.346 | 0.357 | 0.324 | 0.368 | 0.349 | 0.298 | 0.42 | 0.39 | 0.377 | 0.364 | 0.322 | 0.383 | 0.422 | 0.743 | 0.81 | 0.659 | – | 0.755
LOU-NH91 | 0.533 | 0.561 | 0.55 | 0.54 | 0.547 | 0.516 | 0.484 | 0.462 | 0.485 | 0.465 | 0.636 | 0.596 | 0.609 | 0.541 | 0.584 | 0.718 | 0.76 | 0.702 | 0.699 | 0.686
LU99A | 0.242 | 0.237 | 0.234 | 0.203 | 0.243 | 0.213 | 0.212 | 0.212 | 0.194 | 0.249 | 0.665 | 0.662 | 0.605 | 0.503 | 0.587 | 0.537 | 0.514 | 0.43 | 0.485 | 0.566
NCI-H1395 | 0.482 | 0.444 | 0.466 | 0.515 | 0.429 | 0.571 | 0.548 | 0.508 | 0.5 | 0.496 | 0.386 | 0.398 | 0.425 | 0.401 | 0.371 | 0.59 | 0.6 | 0.563 | 0.574 | 0.6
NCI-H460 | 0.104 | 0.165 | 0.123 | 0.0825 | 0.0699 | 0.305 | 0.441 | 0.27 | 0.299 | 0.319 | 0.492 | 0.57 | 0.588 | 0.538 | 0.315 | 0.498 | 0.53 | 0.506 | 0.369 | 0.421
201T | 0.322 | 0.306 | 0.274 | 0.306 | 0.231 | 0.59 | 0.604 | 0.528 | 0.568 | 0.645 | 0.499 | 0.443 | 0.406 | 0.425 | 0.484 | 0.758 | 0.757 | 0.635 | 0.705 | 0.716
NCI-H1944 | 0.214 | 0.195 | 0.196 | 0.23 | 0.202 | 0.315 | 0.314 | 0.248 | 0.31 | 0.284 | 0.183 | 0.19 | 0.165 | 0.208 | 0.222 | 0.409 | 0.409 | 0.386 | 0.396 | 0.355
NCI-H2405 | 0.336 | 0.351 | 0.332 | 0.381 | 0.358 | 0.265 | 0.291 | 0.294 | 0.294 | 0.275 | 0.364 | 0.353 | 0.33 | 0.335 | 0.382 | 0.521 | 0.531 | 0.539 | 0.532 | 0.52
